Measured values as given in EPA's ToxValDB 9.5.
Converted amounts (≈) assume the structure as drawn.

How the values were obtained:
[1] = tested on: Bibionidae; settings: chronic/long-term
[2] = tested on: Canidae; settings: Dog Other
[3] = tested on: Colinus virginianus; settings: for LD50: acute, oral, mortality
[4] = tested on: Daphnia magna; settings: chronic/long-term; duration: 21 days; reproduction
[5] = tested on: Oncorhynchus mykiss
[6] = tested on: Rattus norvegicus
[7] = tested on: Tagia sp.; settings: for LC50: acute, duration: 14 days
[8] = tested on: Typhlodromus pyri; assay: LR50; higher = less toxic; settings: not reported; mortality
[9] = tested on: Vigna radiata var. radiata; settings: not reported; other
[10] = tested on: Anas platyrhynchos; settings: for LC50: short-term, oral, feed, mortality
[11] = tested on: Bird; settings: acute; oral; unspecified; mortality
[12] = tested on: Coturnix coturnix; settings: acute; oral; mortality
[13] = tested on: Mus musculus; settings: acute; oral; F; mortality
[14] = tested on: Coturnix japonica; settings: reproduction developmental
[15] = tested on: Oryctolagus sp.
[16] = tested on: Sus scrofa; settings: oral, Not specified
[17] = tested on: Danio rerio; settings: acute; duration: 96 hours; mortality
[18] = tested on: Equus caballus; settings: acute; oral; unspecified; mortality
[19] = tested on: Gallus gallus
[20] = tested on: Meleagris sp.; settings: chronic/long-term; duration: 16 weeks; oral; feed; M/F; no effects
[21] = tested on: Numida meleagris; settings: subchronic; duration: 35 days; oral; feed; no effects
[22] = tested on: Phasianus sp.; settings: subchronic; duration: 35 days; oral; feed; food consumption
[23] = tested on: Equus caballus; assay: ALD; higher = less toxic; settings: acute; oral; unspecified; mortality
[24] = tested on: Apis mellifera; settings: acute, duration: 48 hours, mortality
[25] = tested on: Gasterosteus aculeatus; settings: acute; duration: 96 hours; mortality
[26] = tested on: Aphidius rhopalosiphi; assay: LR50; higher = less toxic; settings: acute; duration: 48 hours; mortality
[27] = tested on: Bovidae; settings: subchronic; duration: 90 days; neurology
[28] = tested on: Felidae; settings: chronic; duration: 420 days; oral; diet; M/F; Cat; neurology
[29] = tested on: Neovison vison; settings: chronic; duration: 93 days; oral; diet; neurology
[30] = tested on: Ovis sp.; settings: subchronic; duration: 59 days; oral; diet; neurology
[31] = tested on: Macaca mulatta; settings: chronic; duration: 183 days; oral; capsule; M/F; clinical chemistry
[32] = tested on: Lepomis macrochirus; settings: acute; duration: 96 hours; mortality
[33] = tested on: Leuciscus idus; settings: acute; duration: 96 hours; mortality
[34] = chronic, duration: 2 years, clinical chemistry

**Q.** What does the source list for `Nc1c(Cl)cc([N+](=O)[O-])cc1Cl` [1-Amino-2,6-dichloro-4-nitrobenzene]?
**A.** NOEC [1]: 0.6 mg/L; NOAEL ([2]; chronic, duration: 1 years, oral, hematological): 2.5 mg/kg-day; NOEC ([3]; reproduction developmental): 35.2 mg/kg-day; NOEC [4]: 0.032 mg/L; NOEC ([5]; chronic/long-term, duration: 28 days, growth): 0.05 mg/L; NOEL ([6]; reproduction developmental, body weight): 19 mg/kg-day; NOEC ([7]; chronic/long-term, duration: 56 days): 77.8 mg/kg; LR50 [8]: 374 g/ha

**Q.** What does the source list for `Cc1cc(C)[nH]c(=O)n1` [4,6-Dimethylpyrimidin-2-ol]?
**A.** LC50 ([7]; no effects): > 1000 mg/kg; NOEC [9]: 2.63 mg/kg

**Q.** For `CCOP(=S)(OCC)Oc1nc(Cl)c(Cl)cc1Cl` [Chlorpyrifos], which NOEC ([10]; reproductive, reproduction) is on record?
**A.** 2.88 mg/kg-day

**Q.** And the LC50 [10]?
**A.** 71 mg/kg-day

**Q.** What about the LD50 [11] of the same molecule?
**A.** 122 mg/kg

**Q.** And the NOAEL [2, 34]?
**A.** 0.1 mg/kg-day

**Q.** What about the LD50 ([3]; duration: 1 hours) of the same molecule?
**A.** 75 mg/kg

**Q.** And the LD50 [12]?
**A.** 13.3 mg/kg

**Q.** What about the LD50 [13] of the same molecule?
**A.** 64 mg/kg

**Q.** And the NOAEL ([6]; acute, clinical chemistry)?
**A.** 0.5 mg/kg-day

**Q.** And the NOAEL [6, 34]?
**A.** 0.1 mg/kg-day

**Q.** And the NOAEL ([6]; reproduction developmental)?
**A.** 1 mg/kg-day

**Q.** And the NOAEL ([6]; reproduction developmental, clinical chemistry)?
**A.** 0.1 mg/kg-day

**Q.** Which results are given for `O=c1oc2ccccc2c(O)c1C1CC(c2ccc(-c3ccccc3)cc2)Cc2ccccc21` (stereo not given) [Difenacoum]?
**A.** LC50 [10]: 3.5 mg/kg-day; LD50 ([2]; acute, oral, mortality): 50 mg/kg-day; LD50 [3]: 56 mg/kg-day; NOEC [14]: > 0.01 mg/kg-day; LC50 ([5]; acute, duration: 96 hours, mortality): 0.064 mg/L (≈ 0.144 µM); NOAEL ([15]; reproduction developmental, hematological): 0.005 mg/kg-day; LD50 ([6]; acute, oral, mortality): 1.8 mg/kg-day; LD50 ([16]; acute, mortality): 80 mg/kg-day

**Q.** For `CC[C@@H](C(=O)[C@@H](C)[C@@H](O)[C@H](C)CCc1ccc(C)c(O)c1C(=O)[O-])[C@H]1O[C@](CC)([C@H]2CC[C@](O)(CC)[C@H](C)O2)C[C@@H]1C.[Na+]` [Lasalocid sodium], which LEL ([2]; repeat dose other, oral, diet, clinical signs) is on record?
**A.** 5 mg/kg-day

**Q.** And the LC50 [17]?
**A.** 2.5 mg/L

**Q.** What about the LD50 [18] of the same molecule?
**A.** 15 mg/kg

**Q.** And the LEL ([19]; subchronic, duration: 13 weeks, M/F, growth)?
**A.** 225 mg/kg-day

**Q.** What about the LEL [20] of the same molecule?
**A.** 375 mg/kg

**Q.** And the LEL [21]?
**A.** 240 mg/kg

**Q.** What about the NOEL ([15]; developmental, duration: 23 days, oral, gavage, F, New Zealand, development) of the same molecule?
**A.** 0.5 mg/kg-day

**Q.** And the LEL [22]?
**A.** 180 mg/kg

**Q.** And the NOEL ([6]; chronic, duration: 2 years, oral, M, organ weight)?
**A.** 0.5 mg/kg-day

**Q.** What about the LC50 ([7]; mortality) of the same molecule?
**A.** 71.8 mg/kg

**Q.** What about the ALD [23] of the same molecule?
**A.** 15 mg/kg

**Q.** Which results are given for `CCOC(=O)CC(SP(=S)(OC)OC)C(=O)OCC` (stereo not given) [Malathion]?
**A.** LD50 ([24]; dermal): 0.16 µg/piece; NOEC [4]: 6e-05 mg/L; LC50 [25]: 0.022 mg/L (≈ 0.0666 µM); NOEC ([5]; chronic/long-term, duration: 97 days, morphology): 0.021 mg/L; NOAEL ([6]; chronic, duration: 2 years, neurology): 29 mg/kg-day; NOAEL ([6]; subchronic, duration: 90 days, neurology): 34 mg/kg-day; LC50 ([7]; mortality): 613 mg/kg; LR50 [26]: 0.0612 g/ha

**Q.** What does the source list for `[CH3][Hg+]` [Methyl mercury(II) cation]?
**A.** LOAEL ([10]; reproductive, development): 5 mg/kg; NOAEL [27]: 0.1 mg/kg-day; LOAEL ([2]; chronic, duration: 385 days, oral, neurology): 0.12 mg/kg-day; NOAEL [28]: 0.02 mg/kg-day; NOAEL ([19]; reproduction developmental, duration: 50 days, F, reproduction): 0.75 mg/kg-day; LOAEL [29]: 0.18 mg/kg-day; NOAEL ([5]; chronic/long-term, duration: 112 days, oral, feed, hematological): 0.17 mg/kg-day; LOAEL [30]: 0.225 mg/kg-day; NOAEL ([16]; subchronic, duration: 60 days, diet, histopathology: nonneoplastic): 0.19 mg/kg-day

**Q.** Which NOAEL [31] does the source give for `O=S(=O)(O)C(F)(F)C(F)(F)C(F)(F)C(F)(F)C(F)(F)C(F)(F)C(F)(F)C(F)(F)F` [Perfluorooctanesulfonic acid] here?
**A.** 0.03 mg/kg-day

**Q.** Which LD50 ([24]; oral, unspecified) does the source give for `CC(COc1ccc(Oc2ccccc2)cc1)Oc1ccccn1` (stereo not given) [Pyriproxyfen] here?
**A.** 74 µg/piece

**Q.** What about the NOEC ([1]; duration: 28 days, other) of the same molecule?
**A.** 0.01 mg/L

**Q.** What about the NOEC [4] of the same molecule?
**A.** 1.5e-05 mg/L

**Q.** What about the LC50 [32] of the same molecule?
**A.** > 0.27 mg/L

**Q.** What about the NOEC ([5]; chronic/long-term, duration: 95 days) of the same molecule?
**A.** 0.0043 mg/L

**Q.** `CN(C)C.Cl` [Trimethylamine hydrochloride] was tested. Which LC50 [33] did it give?
**A.** > 500 mg/L

**Q.** And the NOAEL ([6]; subchronic, duration: 90 days)?
**A.** 144 mg/kg-day
